Assay results reported in patent US5672603A, “Apoptosis regulating composition” (Otsuka Pharmaceutical Co., Ltd., priority 1991, dated 1997).

Experiments:
W/BF1 :(NZW×BXSB)F1 mice = assay: Blood cell analysis in autoimmune disease mice; type: in vivo
Method: W/BF1 :(NZW×BXSB)F1 mice were used at the age of 14 weeks (purchased from Kiwa Experimental Animal). Groups of 10 mice were used in each experiment.
The mice in respective groups were given a diet (Oriental Yeast), which is usually given to this kind of mice, and water.
Compound 1 (Lot No. 9D87M) was used as suspended in a 0.5% solution of carborymethylcellulose (CMC, Cellogan). Compound 1 was administered to mice by oral garage in doses of 100 and 300 mg/kg body weight/day for 6 weeks from 14 weeks of age to 20 weeks of age according to the 5-day administration and 2-day cessation schedule. As a control, an untreated group was provided. […] Statistic analysis was performed by the generalized Wilcoxon test with respect to the untreated group.
(2) For blood cell analysis, the blood was sampled from the fundus oculi at the age of 14, 16, 18 and 20 weeks. Changes in blood cell (white blood cell, red blood cell and platelet) counts were determined using an automatic blood cell analyzer (Coulter JR, Coulter). The differential (neutrophil and 11 lymphocyte) counts were determined using blood smears stained with Wright-Giemsa stain. For statistical analysis, Student's t test was used, taking the untreated group as control, on each blood sampling day.

[1] = tested on: Human promyelocytic leukemia cells (HL-60); assay: Cancer cell growth inhibition, HL-60 (long-term culture, trypan blue viable count); type: cell-based; conditions: control 100
Source text: The human promyelocytic leukemia cell line HL-60 is a human leukemia cell line established by Robert Gallo et al. and typical properties thereof are described in the literature [Gallo, R. C. et al., Blood, 54, 713 (1979)]. It is available from the American Type Culture Collection (ATCC) under the accession number ATCC No. CCL-240.
The concentration of HL-60 cells was adjusted to 1×10^5 cells/ml using RPMI-1640 medium (GIBCO) supplemented with 10% of FCS (fetal calf serum; GIBCO).
Test compound 1 was dissolved in acetic acid, followed by dilution with the same medium as used above in (1) and neutralization with 2N NaOH to give final concentrations of 100 μg/ml, 10 μg/ml and 1.0 μg/ml.
a) The test compound solutions prepared as described above under (3) were added to the HL-60 cell suspension prepared as described above under (1) to final concentrations of 10 μg/ml and 1.0 μg/ml. Using 12-well culture plates (Costar), cultivation was conducted in a 5% carbon dioxide gas incubator maintained at 37° C. for 3 to 4 days. The test compound-free medium was used as a control. Thereafter, the cell suspension in each well was sampled and mixed with 0.2% trypan blue-containing phosphate buffer, and unstained viable cells were counted under a microscope. Based on the counting result, the viable cell concentration was readjusted to 1×10^5 cells/ml, and cultivation was continued under the same conditions.

Question: What does the source list for `COc1ccc(C(=O)N2CCN(c3ccc4c(c3)CCC(=O)N4)CC2)cc1OC` [Compound 1, 6-[4-(3,4-Dimethoxybenzoyl)-1-piperazinyl]-3,4-dihydrocarbostyril]?
Answer: Lymphocytes (W/BF1 :(NZW×BXSB)F1 mice; 100 mg/kg, 14 weeks of age): 6.55 ± 1.11 ×10^3 /mm^3; Neutrophils (W/BF1 :(NZW×BXSB)F1 mice; 100 mg/kg, 14 weeks of age): 0.97 ± 0.21 ×10^3 /mm^3; Platelets (W/BF1 :(NZW×BXSB)F1 mice; 100 mg/kg, 14 weeks of age): 1225.2 ± 187.6 ×10^3 /mm^3; Red blood cells (W/BF1 :(NZW×BXSB)F1 mice; 100 mg/kg, 14 weeks of age): 9.08 ± 0.19 ×10^6 /mm^3; White blood cells (W/BF1 :(NZW×BXSB)F1 mice; 100 mg/kg, 14 weeks of age): 7.53 ± 1.26 ×10^3 /mm^3; Lymphocytes (W/BF1 :(NZW×BXSB)F1 mice; 100 mg/kg, 16 weeks of age): 9.83 ± 2.72 ×10^3 /mm^3; Neutrophils (W/BF1 :(NZW×BXSB)F1 mice; 100 mg/kg, 16 weeks of age): 3.01 ± 2.14 ×10^3 /mm^3; Platelets (W/BF1 :(NZW×BXSB)F1 mice; 100 mg/kg, 16 weeks of age): 749.6 ± 116.6 ×10^3 /mm^3; White blood cells (W/BF1 :(NZW×BXSB)F1 mice; 100 mg/kg, 16 weeks of age): 12.91 ± 4.76 ×10^3 /mm^3; Red blood cells (W/BF1 :(NZW×BXSB)F1 mice; 100 mg/kg, 16 weeks of age, *P < 0.05): 9.06 ± 0.19 ×10^6 /mm^3; Lymphocytes (W/BF1 :(NZW×BXSB)F1 mice; 100 mg/kg, 18 weeks of age): 10.68 ± 3.78 ×10^3 /mm^3; Neutrophils (W/BF1 :(NZW×BXSB)F1 mice; 100 mg/kg, 18 weeks of age): 5.82 ± 1.65 ×10^3 /mm^3; Platelets (W/BF1 :(NZW×BXSB)F1 mice; 100 mg/kg, 18 weeks of age): 524.0 ± 105.6 ×10^3 /mm^3; Red blood cells (W/BF1 :(NZW×BXSB)F1 mice; 100 mg/kg, 18 weeks of age): 8.46 ± 0.34 ×10^6 /mm^3; White blood cells (W/BF1 :(NZW×BXSB)F1 mice; 100 mg/kg, 18 weeks of age): 16.49 ± 4.98 ×10^3 /mm^3; Lymphocytes (W/BF1 :(NZW×BXSB)F1 mice; 100 mg/kg, 20 weeks of age): 8.70 ± 1.02 ×10^3 /mm^3; Neutrophils (W/BF1 :(NZW×BXSB)F1 mice; 100 mg/kg, 20 weeks of age): 3.25 ± 1.06 ×10^3 /mm^3; Platelets (W/BF1 :(NZW×BXSB)F1 mice; 100 mg/kg, 20 weeks of age): 341.1 ± 111.9 ×10^3 /mm^3; White blood cells (W/BF1 :(NZW×BXSB)F1 mice; 100 mg/kg, 20 weeks of age): 11.72 ± 1.71 ×10^3 /mm^3; Red blood cells (W/BF1 :(NZW×BXSB)F1 mice; 100 mg/kg, 20 weeks of age, *P < 0.05): 8.29 ± 0.37 ×10^6 /mm^3; Inhibition of decrease in platelet count (in words) (W/BF1 :(NZW×BXSB)F1 mice; 300 mg/kg/day, 20 weeks of age, vs untreated): significant inhibition; Lymphocytes (W/BF1 :(NZW×BXSB)F1 mice; 300 mg/kg, 14 weeks of age): 4.50 ± 0.63 ×10^3 /mm^3; Neutrophils (W/BF1 :(NZW×BXSB)F1 mice; 300 mg/kg, 14 weeks of age): 0.79 ± 0.19 ×10^3 /mm^3; Platelets (W/BF1 :(NZW×BXSB)F1 mice; 300 mg/kg, 14 weeks of age): 1316.8 ± 86.3 ×10^3 /mm^3; Red blood cells (W/BF1 :(NZW×BXSB)F1 mice; 300 mg/kg, 14 weeks of age): 9.17 ± 0.21 ×10^6 /mm^3; White blood cells (W/BF1 :(NZW×BXSB)F1 mice; 300 mg/kg, 14 weeks of age): 5.46 ± 0.74 ×10^3 /mm^3; Lymphocytes (W/BF1 :(NZW×BXSB)F1 mice; 300 mg/kg, 16 weeks of age): 7.01 ± 0.92 ×10^3 /mm^3; Neutrophils (W/BF1 :(NZW×BXSB)F1 mice; 300 mg/kg, 16 weeks of age): 1.86 ± 0.40 ×10^3 /mm^3; Platelets (W/BF1 :(NZW×BXSB)F1 mice; 300 mg/kg, 16 weeks of age): 1055.8 ± 72.0 ×10^3 /mm^3; Red blood cells (W/BF1 :(NZW×BXSB)F1 mice; 300 mg/kg, 16 weeks of age): 8.43 ± 0.30 ×10^6 /mm^3; White blood cells (W/BF1 :(NZW×BXSB)F1 mice; 300 mg/kg, 16 weeks of age): 9.36 ± 1.77 ×10^3 /mm^3; Lymphocytes (W/BF1 :(NZW×BXSB)F1 mice; 300 mg/kg, 18 weeks of age): 6.16 ± 0.88 ×10^3 /mm^3; Neutrophils (W/BF1 :(NZW×BXSB)F1 mice; 300 mg/kg, 18 weeks of age): 5.65 ± 2.77 ×10^3 /mm^3; Platelets (W/BF1 :(NZW×BXSB)F1 mice; 300 mg/kg, 18 weeks of age): 980.0 ± 114.4 ×10^3 /mm^3; Red blood cells (W/BF1 :(NZW×BXSB)F1 mice; 300 mg/kg, 18 weeks of age): 8.83 ± 0.32 ×10^6 /mm^3; White blood cells (W/BF1 :(NZW×BXSB)F1 mice; 300 mg/kg, 18 weeks of age): 11.90 ± 3.52 ×10^3 /mm^3; Lymphocytes (W/BF1 :(NZW×BXSB)F1 mice; 300 mg/kg, 20 weeks of age): 10.73 ± 5.81 ×10^3 /mm^3; Neutrophils (W/BF1 :(NZW×BXSB)F1 mice; 300 mg/kg, 20 weeks of age): 2.24 ± 0.23 ×10^3 /mm^3; Red blood cells (W/BF1 :(NZW×BXSB)F1 mice; 300 mg/kg, 20 weeks of age): 7.90 ± 0.30 ×10^6 /mm^3; White blood cells (W/BF1 :(NZW×BXSB)F1 mice; 300 mg/kg, 20 weeks of age): 12.97 ± 5.95 ×10^3 /mm^3; Platelets (W/BF1 :(NZW×BXSB)F1 mice; 300 mg/kg, 20 weeks of age, **P < 0.01): 823.3 ± 24.5 ×10^3 /mm^3; Red blood cell count (in words) (W/BF1 :(NZW×BXSB)F1 mice; compared with the platelet count result): A similar result was found for red blood cell count; Effect on white blood cell count (in words) (W/BF1 :(NZW×BXSB)F1 mice; mouse, in vivo): no effect on this parameter; activity at 1 µg/mL ([1]; HL-60, 648 h, on day 27, 1.0 μg/ml): 76 ± 3.8%; activity at 10 µg/mL ([1]; HL-60, 648 h, on day 27, 10 μg/ml): 54 ± 2.6%; activity at 1 µg/mL ([1]; HL-60, 792 h, on day 33, 1.0 μg/ml): 0%; activity at 10 µg/mL ([1]; HL-60, 792 h, on day 33, 10 μg/ml): 0%
